PubChem BioAssay (NCI)
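Step 1: Grow cells in 96-well plates. Step 2: Expose to compound for 48 hours at 5 concentrations. Step 3: Interpolate endpoints linearly; if unreached, use highest concentration. Abbreviation: GI50, concentration required for 50% inhibition of growth. TGI: concentration producing complete growth inhibition.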

test system: ACHN renal; assay: NCI tumour cell line growth inhibition, 48 h

SMILES | GI50 [µM] | TGI [µM]
CCOC1Oc2ccc(C)cc2C(=O)/C1=C\Nc1ccc(S(N)(=O)=O)cc1 (stereo unspecified) | 12.6 | 45
Cc1cc(NN=C(c2ccc(O)cc2)c2ccc(O)cc2)c([N+](=O)[O-])cc1[N+](=O)[O-] | 4.08 | > 100
COc1ccc(-c2c(N)noc2-c2cc(OC)c3c(c2)OCCO3)cc1 | 0.131 | > 100
Cc1nc2ccccc2c(=O)n1/N=C(\N=Nc1cc(Cl)ccc1Cl)c1ccccc1 |  | > 100
Nc1ccccc1C#Cc1ccccc1C#Cc1cccs1 | 18.7 | 39.4
COc1ccc(-c2cc(/C=C/C(=O)c3ccc(N)cc3)[nH]n2)cc1 | 2.01 | 10.6
O=c1[nH]cnc2n[nH]nc12 |  | > 100
CCOC(=O)c1c(NC(=O)c2ccc(Cl)cc2)sc2c(CN(C)C)c(O)ccc12 | 4.28 | 18.3
OCC(O)C(O)C(O)C(O)c1nnc2c(-c3ccccc3)nc3ccccc3n12 (stereo unspecified) | > 100 | > 100
N#Cc1cc(S(=O)(=O)Nc2nc3cc(Cl)ccc3o2)c(SCc2ccccc2)cc1Cl | 13.9 | 26.8
CC1(C)C2CCC13C(=O)C1OC3(C2)C2C(=O)c3c(ccc4c3ccc3ccccc34)C(=O)C12 (stereo unspecified) | 57.4 | > 100
C#C[C@]1(O)CC[C@H]2[C@@H]3CC=C4c5nc(N)sc5CC[C@]4(C)[C@H]3CC[C@@]21C | 5.25 | 30.2
CCOC(=O)c1c(CN2CCN(C)CC2)nc2ccc(Cl)cc2c1-c1ccccc1 | 12.2 | 25.5
COc1ccccc1NC(=O)C1=C(C)NC(C)=C(C(=O)Nc2ccccc2OC)C1c1ccco1 |  | > 100
Cc1ccc(OC(=O)N2C/C(=C\c3ccccc3)C(=O)/C(=C/c3ccccc3)C2)cc1 |  | 80.9
CCOc1ccc2cc(-c3nn(CC4CCNCC4)c4ncnc(N)c34)ccc2c1 | 15.1 | 29.8
O=C(O)CCCCC1CCSS1 (stereo unspecified) |  | > 100
O=c1cccc(Cl)[nH]1 |  | > 100
COc1ccccc1C(=O)N(Cc1ccccc1)c1ccc(Cl)c(C(=O)OC(C)C)c1 |  | 96.8
CN1CC[C@H](c2c(O)cc(O)c3c(=O)cc(-c4ccccc4Cl)oc23)[C@H](O)C1 | 0.0316 | > 10
COc1ccc(C2=Nn3c(nnc3-n3nc(C)cc3C)SC2)cc1 | 0.0781 | > 100
COc1cc(-c2nn(-c3cccc(NC(=O)CCNc4ccc(N5CCOCC5)cc4)c3)cc2-c2ccncc2)ccc1Cl | 2.44 | 41.4
COc1ccc(C)cc1NC(=S)C#N |  | > 100
COc1cccc(-c2nc3sccn3c2-c2ccnc(NCCCNS(=O)(=O)c3ccccc3)c2)c1 | 2.66 | > 100
CCCCCC[C@H]1C(=O)O[C@H](C)[C@H](NC(=O)c2cccc(NC=O)c2OC)C(=O)O[C@@H](C)[C@@H]1OC(=O)CCC (tested in a mixture with another compound) | 10.1 | 23.1
CC1OC(OC2C(O)C(O)C(O)C(O)C2O)C(N)CC1N=C(N)C(=O)O (stereo unspecified) |  | > 100
C=CC(=O)Nc1cc2c(Nc3ccc(F)c(Cl)c3)ncnc2cc1C#CC(C)(C)N1CCN(C)CC1 | 0.0779 | 4.26
NCCCN=c1ccc2c3c1c(O)c1c(O)ccc(=O)c1c3[nH]n2CCNCCO |  | 4.52

test system: SF-268 CNS; assay: NCI tumour cell line growth inhibition, 48 h

SMILES | GI50 [µM] | TGI [µM]
CCOC1Oc2ccc(C)cc2C(=O)/C1=C\Nc1ccc(S(N)(=O)=O)cc1 (stereo unspecified) | 16.1 | > 50
Cc1cc(NN=C(c2ccc(O)cc2)c2ccc(O)cc2)c([N+](=O)[O-])cc1[N+](=O)[O-] | 5.34 | 57.3
COc1ccc(-c2c(N)noc2-c2cc(OC)c3c(c2)OCCO3)cc1 | 0.0481 | > 100
Cc1nc2ccccc2c(=O)n1/N=C(\N=Nc1cc(Cl)ccc1Cl)c1ccccc1 |  | > 100
Nc1ccccc1C#Cc1ccccc1C#Cc1cccs1 | 20.4 | 42.8
COc1ccc(-c2cc(/C=C/C(=O)c3ccc(N)cc3)[nH]n2)cc1 | 1.82 | 5.31
O=c1[nH]cnc2n[nH]nc12 |  | > 94.3
CCOC(=O)c1c(NC(=O)c2ccc(Cl)cc2)sc2c(CN(C)C)c(O)ccc12 | 7.63 | 48.8
OCC(O)C(O)C(O)C(O)c1nnc2c(-c3ccccc3)nc3ccccc3n12 (stereo unspecified) | > 100 | > 100
N#Cc1cc(S(=O)(=O)Nc2nc3cc(Cl)ccc3o2)c(SCc2ccccc2)cc1Cl | 14.7 | 32.2
CC1(C)C2CCC13C(=O)C1OC3(C2)C2C(=O)c3c(ccc4c3ccc3ccccc34)C(=O)C12 (stereo unspecified) | 70.5 | > 100
C#C[C@]1(O)CC[C@H]2[C@@H]3CC=C4c5nc(N)sc5CC[C@]4(C)[C@H]3CC[C@@]21C | 3.57 | 16.5
CCOC(=O)c1c(CN2CCN(C)CC2)nc2ccc(Cl)cc2c1-c1ccccc1 | 10.2 | 23.5
COc1ccccc1NC(=O)C1=C(C)NC(C)=C(C(=O)Nc2ccccc2OC)C1c1ccco1 |  | > 97.3
Cc1ccc(OC(=O)N2C/C(=C\c3ccccc3)C(=O)/C(=C/c3ccccc3)C2)cc1 |  | 98.5
CCOc1ccc2cc(-c3nn(CC4CCNCC4)c4ncnc(N)c34)ccc2c1 | 12 | 28.2
O=C(O)CCCCC1CCSS1 (stereo unspecified) |  | > 100
O=c1cccc(Cl)[nH]1 |  | > 100
COc1ccccc1C(=O)N(Cc1ccccc1)c1ccc(Cl)c(C(=O)OC(C)C)c1 |  | > 100
CN1CC[C@H](c2c(O)cc(O)c3c(=O)cc(-c4ccccc4Cl)oc23)[C@H](O)C1 | 0.0647 | 
COc1ccc(C2=Nn3c(nnc3-n3nc(C)cc3C)SC2)cc1 | 0.0806 | > 100
COc1cc(-c2nn(-c3cccc(NC(=O)CCNc4ccc(N5CCOCC5)cc4)c3)cc2-c2ccncc2)ccc1Cl | 4.42 | > 100
COc1ccc(C)cc1NC(=S)C#N |  | > 100
COc1cccc(-c2nc3sccn3c2-c2ccnc(NCCCNS(=O)(=O)c3ccccc3)c2)c1 | 3.46 | > 100
CCCCCC[C@H]1C(=O)O[C@H](C)[C@H](NC(=O)c2cccc(NC=O)c2OC)C(=O)O[C@@H](C)[C@@H]1OC(=O)CCC (tested in a mixture with another compound) | 13.7 | 36.6
CC1OC(OC2C(O)C(O)C(O)C(O)C2O)C(N)CC1N=C(N)C(=O)O (stereo unspecified) |  | > 100
C=CC(=O)Nc1cc2c(Nc3ccc(F)c(Cl)c3)ncnc2cc1C#CC(C)(C)N1CCN(C)CC1 | 1.84 | 5.51
NCCCN=c1ccc2c3c1c(O)c1c(O)ccc(=O)c1c3[nH]n2CCNCCO |  | 6.51

test system: KM12 colon; assay: NCI tumour cell line growth inhibition, 48 h

SMILES | GI50 [µM] | TGI [µM]
CCOC1Oc2ccc(C)cc2C(=O)/C1=C\Nc1ccc(S(N)(=O)=O)cc1 (stereo unspecified) | 12 | 32.5
Cc1cc(NN=C(c2ccc(O)cc2)c2ccc(O)cc2)c([N+](=O)[O-])cc1[N+](=O)[O-] | 4.6 | 24
COc1ccc(-c2c(N)noc2-c2cc(OC)c3c(c2)OCCO3)cc1 | < 0.01 | 3.8
Cc1nc2ccccc2c(=O)n1/N=C(\N=Nc1cc(Cl)ccc1Cl)c1ccccc1 |  | 25.8
Nc1ccccc1C#Cc1ccccc1C#Cc1cccs1 | 10.3 | 27.7
COc1ccc(-c2cc(/C=C/C(=O)c3ccc(N)cc3)[nH]n2)cc1 | 1.54 | 3.42
O=c1[nH]cnc2n[nH]nc12 |  | > 100
CCOC(=O)c1c(NC(=O)c2ccc(Cl)cc2)sc2c(CN(C)C)c(O)ccc12 | 4.82 | > 100
OCC(O)C(O)C(O)C(O)c1nnc2c(-c3ccccc3)nc3ccccc3n12 (stereo unspecified) | > 100 | > 100
N#Cc1cc(S(=O)(=O)Nc2nc3cc(Cl)ccc3o2)c(SCc2ccccc2)cc1Cl | 14.9 | 28.1
CC1(C)C2CCC13C(=O)C1OC3(C2)C2C(=O)c3c(ccc4c3ccc3ccccc34)C(=O)C12 (stereo unspecified) | 57.6 | > 100
C#C[C@]1(O)CC[C@H]2[C@@H]3CC=C4c5nc(N)sc5CC[C@]4(C)[C@H]3CC[C@@]21C | 3.49 | 16.1
CCOC(=O)c1c(CN2CCN(C)CC2)nc2ccc(Cl)cc2c1-c1ccccc1 | 6.76 | 19.1
COc1ccccc1NC(=O)C1=C(C)NC(C)=C(C(=O)Nc2ccccc2OC)C1c1ccco1 |  | > 38.4
